Where no end group is shown, it is not given here.

In the assay the test system is luminescent bacteria. The assay can be described thus: Luminescence screen of SPOT-synthesized peptides on luminescent bacteria, with recovery check. It counts as cell-based. Particulars: 0.1 M Tris buffer pH 7.4, 20 mM glucose, luminescence after 4 hours, recovery inspected after 18 h. Here is the method: The peptides are synthesized using standard Fmoc-strategy on cellulose with the SPOT technology; they are positively charged peptides, which were then cleaved from the cellulose and solubilized in water. Peptides were transferred into wells containing luminescent bacteria, in 0.1 M Tris buffer (pH 7.4), containing 20 mM glucose. After 4 hours of incubation time, the luminescence was measured using a microtiter plate reader. Consequently, 50 μl of Mueller-Hinton media was added in order to check for recovery of the bacteria. The plates were manually inspected after 18 h of incubation time.
As for “KRKKRFKWW (also: cellulose-bound) [KRKKRFKWW (SEQ ID NO.:29), peptide synthesized on cellulose with the SPOT technology]”, the antimicrobial activity entry is recorded as “showed antimicrobial activity”.

In the case of “KRRWRIWLV (also: cellulose-bound) [KRRWRIWLV (SEQ ID NO.:15), peptide synthesized on cellulose with the SPOT technology]”, the antimicrobial activity entry was “showed antimicrobial activity”.

As to “WKWRVRVTI (also: cellulose-bound) [WKWRVRVTI (SEQ ID NO.:27), peptide synthesized on cellulose with the SPOT technology]”, the antimicrobial activity result is recorded as “showed antimicrobial activity”.

Turning to “KFKWWRMLI (also: cellulose-bound) [KFKWWRMLI (SEQ ID NO.:10), peptide synthesized on cellulose with the SPOT technology]”, the antimicrobial activity entry was “showed antimicrobial activity”.

Turning to “RLKRWWKFL (also: cellulose-bound) [RLKRWWKFL (SEQ ID NO.:7), peptide synthesized on cellulose with the SPOT technology]”, the antimicrobial activity entry was “showed antimicrobial activity”.

For “RIRRWKFRW (also: cellulose-bound) [RIRRWKFRW (SEQ ID NO.:6), peptide synthesized on cellulose with the SPOT technology]”, the antimicrobial activity result is reported as “showed antimicrobial activity”.

In the case of “RKFRWWVIR (also: cellulose-bound) [RKFRWWVIR (SEQ ID NO.:22), peptide synthesized on cellulose with the SPOT technology]”, the antimicrobial activity result is “showed antimicrobial activity”.

On to “RTKKWIVWI (also: cellulose-bound) [RTKKWIVWI (SEQ ID NO.:28), peptide synthesized on cellulose with the SPOT technology]”, for which the antimicrobial activity result is “showed antimicrobial activity”.

As for “LRRWIRIRW (also: cellulose-bound) [LRRWIRIRW (SEQ ID NO.:21), peptide synthesized on cellulose with the SPOT technology]”, the antimicrobial activity result is listed as “showed antimicrobial activity”.

Consider “RRRWWKLMM (also: cellulose-bound) [RRRWWKLMM (SEQ ID NO.:20), peptide synthesized on cellulose with the SPOT technology]”, for which the antimicrobial activity result was “showed antimicrobial activity”.

Turning to “YRLRVKWKW (also: cellulose-bound) [YRLRVKWKW (SEQ ID NO.:26), peptide synthesized on cellulose with the SPOT technology]”, the antimicrobial activity entry is “showed antimicrobial activity”.
